From patent US20040242669A1, “Method of treating deficits associated with brain injury” (priority 2003, published 2004)
Structures can show the parent of a compound that is named as a salt. Marks after values point to notes of the source that are not given here.

What was measured:
Type in all cases: in vivo, rat
[1] = system: kainate-induced epilepsy; assay: Kainate-induced convulsions (epilepsy); conditions: for Latency (s) to the first tonic-clonic seizure / Seizures (total number) / Mortality (%): kainic acid 10 μg/2 μl i.c.v.; for Latency (s) to the first tonic-clonic seizure / Seizures (total number): 30-min observation, mean ± S.E.M.; for Mortality (%): checked 2 h after convulsive agent
Method: (§1) Male rats of the Sprague-Dawley strain (purchased from Charles River, Italy) weighing 280±20 g were used throughout all experiments. The animals were housed two-three to a cage under a constant light-dark cycle (lights on between 8.00 and 20.00) at 21° C. Commercial food and tap water were available ad libitum. All animals were used only once in the behavioral experiments.
Another group of animals were implanted under ether anaesthesia with a permanent plastic cannula in the right lateral ventricle (foramen interventriculare, Konig and Klippel A 6360) with another cannula into the right jugular vein. These animals were sacrificed at the end of behavioral procedure and the brains were utilized for biochemical analysis. Data were taken from animals showing no abnormalities at the postmortem examination. All experiments were carried out according to the European Community Council Directive 86/609/ECC and efforts were made to minimize animal suffering and to reduce the number of animals used.
Ropinirole (ropinirole hydrochloride, SmithKline Beecham, Italy) and dihydroergocryptine (DHECP) α-dihydroergocryptine methanesulfonate, Monsanto, Italy) were dissolved in saline and injected subcutaneously (s.c.) at the dose of 0.5 and 1 mg/kg/day for 7 days. In the experiments with kainate-induced convulsions, […], and again at the same time of the intracerebroventricular (i.c.v) injection on kainic acid; Control animals received an injection of saline alone with the same procedure.
Kainic acid (Sigma, USA) was dissolved in saline and injected i.c.v. at the dose of 10 μg/2 μi.
Over a 30-min observation, the following items were recorded per each animal receiving an i.c.v. injection of kainic acid: latency in s to the first tonic-clonic seizure; total number of seizures, percent rate of mortality (checked 2 h after the administration of the convulsive agent).
Behavioral scoring of kainate-induced convulsions was started immediately after i.c.v. injection of the drug and proceeded for 30 min. Ropinirole, DHECP or saline were injected twice, 30 min prior and, again, at the same time of the i.c.v. administration of kainic acid.

[2] = system: animals with hypobaric hypoxia-induced amnesia; assay: Step-through passive avoidance, hypobaric hypoxia-induced amnesia; conditions: for Latency: hypobaric hypoxia, median latency to re-enter dark box, max 300 s
Method: as §1
(§2) Ropinirole (ropinirole hydrochloride, SmithKline Beecham, Italy) and dihydroergocryptine (DHECP) α-dihydroergocryptine methanesulfonate, Monsanto, Italy) were dissolved in saline and injected subcutaneously (s.c.) at the dose of 0.5 and 1 mg/kg/day for 7 days. In the experiments with kainate-induced convulsions, ropinirole or DHECP were injected intravenously (i.v.) 30 min prior, and again at the same time of the intracerebroventricular (i.c.v) injection on kainic acid; Control animals received an injection of saline alone with the same procedure.
Passive avoidance behaviour was studied in a step-through type of passive avoidance situation (Ader et al., Psycon Sci, 26, 125-128 (1972)). Briefly the rats were adapted to the apparatus consisting of a large dark compartment equipped with a grid floor and a mesh-covered elevated runway attached to the front centre of the dark chamber. Adaptation training was followed by a single trial in which the rats were placed on the elevated platform and allowed to enter the dark box. Three such trials were given on the next day with an intertrial interval of 5 min after the trial. The rats received a single 2-s unavoidable scrambled foot-shock (0.20 mA) immediately after entering the dark compartment. Retention of the response was tested 24 h after the learning trial. The rats were placed on the elevated runway and the latency to re-enter the shock compartment was recorded up to a maximum of 300 s.
(§3) In the first experiment, the effects of ropinirole or DHECP were studied on amnesia induced by hypobaric hypoxia in rats. After a 7-day pretreatment with ropinirole, DHECP or saline, a group of animals was subjected to acute hypobaric hypoxia by means of a hypobaric chamber (Chantiers et Ateliers de Bretagne, France) causing depression to 300 mmHg (Boismare et al., Gerentology, 24, 6-13 (1978)). After 3 min in the chamber, the animals were removed and admitted for behavioral testing. Intact control rats were also introduced into the chamber but not subjected to hypobaric hypoxia.

[3] = system: animals with hypobaric hypoxia-induced amnesia; assay: Shuttle-box active avoidance acquisition, hypobaric hypoxia-induced amnesia; conditions: for Learners / CARs: hypobaric hypoxia; for CARs: mean ± S.E.M.
Method: as §1, §2
Shuttle-box active avoidance acquisition was studied in a single session test as described in Bohus and De Wied, Endogenous Peptides and Learning and Memory Processes. Academic Press, New York, pp59-775, (1981). Briefly, the rats were trained to avoid the unconditioned stimulus (US) of a scrambled electrical foot-shock (0.20 mA) delivered through the grid floor. The conditioned stimulus (CS) was a buzzer presented for 3 s prior to the US. If no escape occurred within 20 s of CS/US presentation, the shock was terminated. A maximum of 30 conditioning trials were given with a variable intertrial interval averaging 60 s. The learning criterion was five consecutive conditioned avoidance responses (CARs). For those animals that reached the criterion in less than 30 trials, the remaining trials until 30 were considered as CARs. Indexes of avoidance behaviour were the total number of CARs and the percent number of learners per group.
as §3

[4] = system: animals with hypobaric hypoxia-induced amnesia; assay: Open field spontaneous motor activity, hypobaric hypoxia; conditions: vs intact controls and saline-treated hypoxic animals
Method: as §1, §2
Spontaneous motor activity was scored in a circular open field arena as described by Weijnen and Slangen, Pituitary, Adrenal and the Brain, pp221-235 (1982). Animals were put inside a circular lit-up arena, with the bottom divided into 27 areas of equal size.
as §3

[5] = kainate-induced seizures, summary of Table 3
[6] = hypobaric hypoxia-induced amnesia, summary of Table 1

CCCN(CCC)CCc1cccc2c1CC(=O)N2 [ROP, 4-[2-(di-n-propylamino)ethyl]-1,3-dihydro-2H-indolin-2-one hydrochloride]
latency to the first tonic-clonic seizure (effect of treatment, in words) [1, 5]: did not modify
percent mortality rate (effect of treatment, in words) [1, 5]: significant decrease
total number of kainate-induced seizures (effect of treatment, in words) [1, 5]: did not modify
Latency (s) to the first tonic-clonic seizure ([1]; 0.5 mg/kg injected s.c. twice (30 min prior and at kainic acid)): 69.4 ± 8.9 s
Seizures (total number) ([1]; 0.5 mg/kg injected s.c. twice): 7.1 ± 0.9
Mortality (%) ([1]; 0.5 mg/kg injected s.c. twice): 20^a %
Latency (s) to the first tonic-clonic seizure ([1]; 1 mg/kg injected s.c. twice (30 min prior and at kainic acid)): 65.4 ± 6.9 s
Seizures (total number) ([1]; 1 mg/kg injected s.c. twice): 6.9 ± 0.9
Mortality (%) ([1]; 1 mg/kg injected s.c. twice): 10^a %
latency to re-enter the dark box (effect of treatment, in words) [2, 6]: increase
Latency ([2]; 0.5 mg/kg/day s.c. for 7 days): 47^e,f
Latency ([2]; 1 mg/kg/day s.c. for 7 days): 65^f
number of CARs and percent number of learners in the shuttle-box (effect of treatment, in words) [3, 6]: increase
Learners ([3]; 0.5 mg/kg/day s.c. for 7 days): 60^d percent
CARs ([3]; 0.5 mg/kg/day s.c. for 7 days): 16.8 ± 1.3^b
Learners ([3]; 1 mg/kg/day s.c. for 7 days): 70^d percent
CARs ([3]; 1 mg/kg/day s.c. for 7 days): 17.2 ± 1.5^b
ambulation and rearing (effect of treatment, in words) [4]: higher
